Molecular target: T1, p38alpha (Homo sapiens, UniProt Q16539)
T1 construct: GST (N); made in house; host or cells: E. coli (pGEX vector)
Assay: p38α Assay (Caliper LabChip, fluoresceinated peptide)
Format: biochemical
Conditions: ratio of p38 beta IC50 to p38 alpha IC50; higher numbers indicate greater alpha selectivity

T1 sequence (Q16539 whole entry): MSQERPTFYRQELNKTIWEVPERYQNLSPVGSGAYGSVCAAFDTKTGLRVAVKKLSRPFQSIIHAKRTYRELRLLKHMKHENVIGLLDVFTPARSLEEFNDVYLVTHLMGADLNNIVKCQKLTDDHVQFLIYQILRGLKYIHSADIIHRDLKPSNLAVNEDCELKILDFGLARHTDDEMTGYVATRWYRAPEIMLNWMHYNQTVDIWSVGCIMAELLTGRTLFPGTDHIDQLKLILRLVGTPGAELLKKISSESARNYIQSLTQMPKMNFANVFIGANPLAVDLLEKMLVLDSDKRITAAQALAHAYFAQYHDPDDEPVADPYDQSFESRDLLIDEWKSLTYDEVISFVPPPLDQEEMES

Compound	beta/alpha (alpha selectivity)
Cc1ccc(C(=O)NC2CC2)cc1NC(=O)c1ccc(-c2cccc(C(=O)O)c2)s1 [Example 146, 3-(5-(5-(cyclopropylcarbamoyl)-2-methylphenylcarbamoyl)thiophen-2-yl)benzoicacid]	248
Cc1ccc(C(=O)NC2CC2)cc1NC(=O)c1ccc(-c2cc(F)cc(F)c2)s1 [Example 148, N-(5-(cyclopropylcarbamoyl)-2-methylphenyl)-5-(3,5-difluorophenyl)thiophene-2-carboxamide]	160
COc1ccc(-c2ccc(C(=O)Nc3cc(C(=O)NC4CC4)ccc3C)s2)c(OC)c1 [Example 153, N-(5-(cyclopropylcarbamoyl)-2-methylphenyl)-5-(2,4-dimethoxyphenyl)thiophene-2-carboxamide]	228
Cc1ccc(C(=O)NC2CC2)cc1NC(=O)c1ccc(-c2cccc(N)c2)s1 [Example 159, 5-(3-aminophenyl)-N-(5-(cyclopropylcarbamoyl)-2-methylphenyl)thiophene-2-carboxamide]	200
Cc1ccc(C(=O)NC2CC2)cc1NC(=O)c1ccc(-c2cccc(CO)c2)s1 [Example 160, N-(5-(cyclopropylcarbamoyl)-2-methylphenyl)-5-(3-(hydroxymethyl)phenyl)thiophene-2-carboxamide]	233
Cc1ccc(C(=O)NC2CC2)cc1NC(=O)c1ccc(-c2ccc(F)nc2)s1 [Example 169, N-(5-(cyclopropylcarbamoyl)-2-methylphenyl)-5-(6-fluoropyridin-3-yl)thiophene-2-carboxamide]	257
CCNC(=O)c1ccc(-c2ccc(C(=O)Nc3cc(C(=O)NC4CC4)ccc3C)s2)cc1 [Example 181, N-(5-(cyclopropylcarbamoyl)-2-methylphenyl)-5-(4-(ethylcarbamoyl)phenyl)thiophene-2-carboxamide]	240
Cc1ccc(C(=O)NC2CC2)cc1NC(=O)c1ccc(-c2ccc(C(=O)NC(C)C)cc2)s1 [Example 182, N-(5-(cyclopropylcarbamoyl)-2-methylphenyl)-5-(4-(isopropylcarbamoyl)phenyl)thiophene-2-carboxamide]	118

Results, then the compound that gave them:

beta/alpha (alpha selectivity)	Compound
162	Cc1ccc(C(=O)NC2CC2)cc1NC(=O)c1ccc(-c2ccc(C(N)=O)cc2)s1 [Example 185, 5-(4-carbamoylphenyl)-N-(5-(cyclopropylcarbamoyl)-2-methylphenyl)thiophene-2-carboxamide]
225	Cc1ccc(C(=O)NC2CC2)cc1NC(=O)c1ccc(-c2ccc[n+]([O-])c2)s1 [Example 196, 3-(5-(5-(Cyclopropylcarbamoyl)-2-methylphenylcarbamoyl)thiophen-2-yl)pyridine 1-oxide]
379	Cc1ccc(C(=O)NC2CC2)cc1NC(=O)c1cc(-c2cccnc2)cs1 [Example 204, N-(5-(Cyclopropylcarbamoyl)-2-methylphenyl)-4-(pyridin-3-yl)thiophene-2-carboxamide]
433	Cc1ccc(C(=O)NC2CC2)cc1NC(=O)c1ccc(-c2ncccc2C(F)(F)F)s1 [Example 210, N-(5-(Cyclopropylcarbamoyl)-2-methylphenyl)-5-(3-(trifluoromethyl)pyridin-2-yl)thiophene-2-carboxamide]
540	Cc1ccc(C(=O)NC2CC2)cc1NC(=O)c1c[nH]c2ccccc12 [Example 221, N-(5-(cyclopropylcarbamoyl)-2-methylphenyl)-1H-indole-3-carboxamide]
423	Cc1ccc(C(=O)NC2CC2)cc1NC(=O)c1ccc2c(C#N)cn(C)c2c1 [Example 223, 3-Cyano-N-(5-(cyclopropylcarbamoyl)-2-methylphenyl)-1-methyl-1H-indole-6-carboxamide]
448	Cc1ccc(C(=O)NC2CC2)cc1NC(=O)c1ccc2ccn(CCN3CCOCC3)c2c1 [Example 225, N-(5-(Cyclopropylcarbamoyl)-2-methylphenyl)-1-(2-morpholinoethyl)-1H-indole-6-carboxamide]

Reference: patent US8404689B2, “Heterocyclic amide compounds useful as kinase inhibitors” (Bristol-Myers Squibb Company, priority 2006, dated 2013)
